Earlier results in patent US20080188553A1, “NOVEL ASCORBIC ACID COMPOUNDS, METHODS OF SYNTHESIS AND APPLICATION USE THEREOF” (priority 2007, published 2008).

Conditions: relative to ascorbic acid; test conditions not given

more stable than ascorbic acid: 20 times
SMILES: O=C1O[C@H]([C@@H](O)CO)C(O)=C1OS(=O)(=O)O [L-ascorbate 2-sulphate]
